# Earlier results in patent US20100047451A1, “ACTINIC-RADIATION CURABLE INK COMPOSITION, INK SET, INK JET PRINTING APPARATUS, AND INK JET RECORDING METHOD USING ACTINIC-RADIATION CURABLE INK COMPOSITION” (SEIKO EPSON CORPORATION, priority 2008, published 2010).
# Key:
# [1] = primary irritation index
# [2] = measurements at 25° C.
Molecule,PII [1],Viscosity [2] [mPa · s]
C=C(C)C(=O)OCC(C)(C)COC(=O)C(=C)C [Neopentyl glycol dimethacrylate],0.0,–
Polyethylene glycol 200 dimethacrylate,0.5,14
"C=C(C)C(=O)OCCCCCCOC(=O)C(=C)C [1,6-Hexanediol dimethacrylate]",0.5,–
"C=C(C)C(=O)OCC(O)COC(=O)C(=C)C [2-Hydroxy-1,3-dimethacryloxypropane]",0.6,–
Polyethylene glycol #400 diacrylate,0.4,–
Trimethylolpropane PO-modified triacrylate,0.1,–
C=CC(=O)OCCOCCOC [Methoxy diethylene glycol monoacrylate],0.7,–
C=C(C)C(=O)OCCOC(=O)C(=C)C [Ethylene glycol dimethacrylate],0.6,–
"C=CC(=O)OCC1COC(C)(CC(C)C)O1 (stereo not drawn) [(2-Methyl-2-isobutyl-1,3-dioxolan-4-yl)methyl acrylate]",1.0,–
"C=CC(=O)OCCCCCCCCCOC(=O)C=C [1,9-Nonanediol diacrylate]",2.0,–
"C=CC(=O)OCC1COC(C)(CC)O1 (stereo not drawn) [(2-Methyl-2-ethyl-1,3-dioxolan-4-yl)methyl acrylate]",1.3,5.1
C=C(C)C(=O)OCCOCCOC(=O)C(=C)C [Diethylene glycol dimethacrylate],0.5,–
Trimethylolpropane-modified triacrylate,1.5,–
C=CC(=O)O[C@@H]1C[C@H]2CC[C@]1(C)C2(C)C [Isobornyl acrylate],0.6,–
C=CC(=O)OCC(C)OCC(C)OCC(C)OC(=O)C=C (stereo not drawn) [Tripropylene glycol diacrylate],1.6,–
C=CC(=O)OCCOc1ccccc1 [Phenoxyethyl acrylate],1.7,–
C=C(C)C(=O)OCC(CC)(COC(=O)C(=C)C)COC(=O)C(=C)C [Trimethylolpropane trimethacrylate],0.8,–
Glycerol PO-modified triacrylate,0.8,–
C=CC(=O)N1CCOCC1 [Acryloylmorpholine],0.5,–
